According to PubChem BioAssay (NCI):
Several values for one entry are separate records, joined by “and”; a condition that tells them apart may be missing. Equal entries are not always repeated.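 In this assay, cells in 96-well plates receive the compound at five concentrations for 48 hours. Endpoints are linearly interpolated between the surrounding concentrations. Here, GI50 denotes the concentration required for 50% inhibition of growth. TGI: total growth inhibition.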

What was measured:
Assay in all cases: NCI anticancer screen, dose series, 48 h
CCRF-CEM leukemia = test system: CCRF-CEM leukemia
UO-31 renal = test system: UO-31 renal
NCI-H522 lung = test system: NCI-H522 lung
MOLT-4 leukemia = test system: MOLT-4 leukemia
SR leukemia = test system: SR leukemia
HOP-92 NSCLC = test system: HOP-92 NSCLC
OVCAR-8 ovarian = test system: OVCAR-8 ovarian
786-0 renal = test system: 786-0 renal
OVCAR-5 ovarian = test system: OVCAR-5 ovarian
RPMI-8226 leukemia = test system: RPMI-8226 leukemia

Row | SMILES | GI50 (CCRF-CEM leukemia) | TGI (CCRF-CEM leukemia) | GI50 (UO-31 renal) | TGI (UO-31 renal) | GI50 (NCI-H522 lung) [µM] | TGI (NCI-H522 lung) [µM] | GI50 (MOLT-4 leukemia) | TGI (MOLT-4 leukemia) | GI50 (SR leukemia) [µM] | TGI (SR leukemia) [µM] | GI50 (HOP-92 NSCLC) [µM] | TGI (HOP-92 NSCLC) [µM] | GI50 (OVCAR-8 ovarian) | TGI (OVCAR-8 ovarian) [µM] | GI50 (786-0 renal) | TGI (786-0 renal) | GI50 (OVCAR-5 ovarian) | TGI (OVCAR-5 ovarian) | GI50 (RPMI-8226 leukemia) [µM] | TGI (RPMI-8226 leukemia) [µM]
1 | COc1ccc2c(Nc3ccc(NS(C)(=O)=O)cc3)c3ccccc3nc2c1 | 0.32 µM | 6.03 µM | 0.809 µM | 8.87 µM | 0.304 | 1.84 | 0.111 µM | 22.5 µM | 0.112 | 6.46 | 0.136 | 2.66 | 0.432 µM | 5.26 | 0.544 µM | 4.24 µM | 1.02 µM | 4.91 µM | 0.431 | 4.09
2 | CCN1C(=S)N(CC)C2C1NC(=S)N2/N=C/C=C/c1ccccc1 (stereo not given) | 1.26 µM | 12 µM | 3.55 µM | 18.3 µM | 0.739 | 3.7 | 1.02 µM | 25.4 µM | 0.347 | 5.92 | 4 | 20.9 | 4.47 µM | 23.5 | 5.19 µM | 19.2 µM | 3.92 µM | 16.9 µM | 1.97 | 6.64
3 | CC(=O)O[C@H]1CC[C@@]2(C)C(=CC[C@H]3C4=CC=C(C(C)=O)[C@@]4(C)CCC32)C1 (stereo not given in full) |  | > 100 µM |  | > 100 µM |  | 46.1 |  | > 100 µM |  | 81 |  | > 100 |  | 66.3 |  | > 100 µM |  | > 100 µM |  | > 100
4 | O=[N+]([O-])c1ccc(N/N=C/c2c(O)ccc3ccccc23)nc1 | 0.918 µM | > 100 µM | 1.25 µM | > 100 µM | 3.74 | > 100 | 1.62 µM | > 100 µM | 0.665 | > 100 | 7.94 | 99.4 | 5.78 µM | > 100 | 13.3 µM | > 100 µM | > 100 µM | > 100 µM | > 100 | > 100
5 | COc1ccc(/C=C/c2nc(NCCCN(C)C)c3ccccc3n2)cc1 | 2.02 µM | 4.53 µM | 14.1 µM | 29.4 µM | 1.83 | 3.66 | 1.61 µM | 3.55 µM | 1.86 | 4.2 | 2.5 | 8.15 | 4.75 µM | 18.7 | 13.3 µM | 26.7 µM | 5.58 µM | 13.6 µM | 1.78 | 4.64
6 | CCOc1cc2c(NCCCN(CCO)CCO)ncnc2c(OCC)c1OCC |  | > 100 µM |  | > 100 µM |  | > 100 |  | > 100 µM |  | > 100 |  | > 88 |  | > 100 |  | > 100 µM |  | > 100 µM |  | > 100
7 | COc1cc2noc(-c3ccccc3)c2cc1OC |  | > 100 µM |  | > 100 µM |  | > 100 |  | > 100 µM |  | > 100 |  | > 100 |  | > 100 |  | > 100 µM |  | 94 µM |  | 56.7
8 | C[C@]1(CO)[C@H]2CC[C@@]34C=C[C@@](CO)(CC[C@H]3[C@]2(C)CC[C@H]1O)C4 |  | > 100 µM |  | > 100 µM |  | > 100 |  | 48.9 µM |  | > 100 |  | > 100 |  | > 100 |  | > 100 µM |  | > 100 µM |  | 86.6
9 | O=c1[nH]c(=O)n(C2OC(CO)C(O)C2O)c2c1CCCC2 (stereo not given) |  | > 100 µM |  | > 100 µM |  | > 100 |  | > 100 µM |  | > 100 |  | > 100 |  | > 100 |  | > 100 µM |  | > 100 µM |  | > 100
10 | Cc1nc2ccc(Nc3nc(NCCN4CCOCC4)nc(Nc4ccc(F)cc4)n3)cc2n1Cc1ccccc1 | 2.27 µM | 8.04 µM | 1.78 µM | 8.2 µM | 2.92 | 9.48 | 2.7 µM | 10.9 µM | 1.46 | 5.23 | 1.59 | 6.48 | 3.28 µM | > 100 | 1.41 µM | 3.04 µM | 2.71 µM | 13.6 µM | 1.74 | 4.62
11 | CCOC(=O)C(Cc1c[nH]c2ccc(N(CCCl)CCCl)cc12)(NC(C)=O)C(=O)OCC | 1.33 µM and 1.47 µM | 5.21 µM and 19.9 µM | 20.7 µM and 10.5 µM | 53.8 µM and 46 µM | 0.17 | 1.93 | 2.88 µM and 0.957 µM | 13 µM and 26.2 µM | 1.86 | 7.14 | 14.1 | 250 | 14.3 µM and 19.8 µM | 45 | 4.78 µM and 3.71 µM | 23.3 µM and 21.8 µM | 30.8 µM and 25.2 µM | 67 µM and 75.7 µM | 6.41 | 33.4
12 | C=C1C(=O)OC2CC1C(O)C/C(C)=C/CC/C(C)=C/C(O)CC2C (stereo not given) |  | 1.34 µM |  | 6.66 µM |  | 0.504 |  | 3.11 µM |  | 2.61 |  | 4.17 |  | 4.72 |  | 3.99 µM |  | 24.7 µM |  | 6.23
13 | CC[C@@]1(O)C(=O)NCc2c1cc1n(c2=O)Cc2cc3c(N)cccc3nc2-1 | 0.185 µM | > 19.5 µM | 0.866 µM | 7.12 µM | 0.176 | 9.71 | 0.301 µM | 16.6 µM | 0.672 | 5.35 | 8.64 | > 84.1 | 2.39 µM | > 78.7 | 1.37 µM | 11.7 µM | 11.8 µM | > 94.5 µM | 4.23 | > 32.1
14 | COc1ccccc1NC(=O)n1nc(N)c2ccccc21 | > 100 µM | > 100 µM | > 63.3 µM | > 100 µM | 53.9 | > 100 | 67.4 µM | > 100 µM | 92.4 | > 100 | 22.7 | 76.5 | > 78.3 µM | > 100 | > 84 µM | > 100 µM | > 100 µM | > 100 µM | 48.7 | > 100
15 | CCOC(=O)C(=Cc1ccccc1[N+](=O)[O-])C(=O)OCC | 3.13 µM | 20.6 µM | 4.52 µM | 15.9 µM | 1.86 | 4.63 | 3.55 µM | 34.5 µM | 2.07 | 30.1 | 3.67 | 8.8 | 2.87 µM | 11.3 | 3.85 µM | 11.8 µM | 5.75 µM | 15.7 µM | 3.69 | 18.3
16 | COc1c(C(=O)O)oc2c(OC)cccc12 |  | > 100 µM |  | > 100 µM |  | > 100 |  | > 100 µM |  | > 100 |  | > 100 |  | > 100 |  | > 100 µM |  | > 100 µM |  | > 100
